Test results: patent publication US12552766B2, “Pesticidally active azole amide compounds” (SYNGENTA CROP PROTECTION AG, priority 2019, dated 2026)

How the values were obtained:
Assay type in all cases: in vivo
[1] = tested on: Diabrotica Balteata (Corn Root Worm); assay: Example B1: Diabrotica balteata, spray on maize sprouts; conditions: 96 h, application rate of 200 ppm, L2 larvae, 4 days after infestation, read-out: control in at least one of the two categories (mortality or growth inhibition)
Procedure, shortened: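 Maize sprouts on agar were sprayed with aqueous test solutions made from 10′000 ppm DMSO stocks, dried, then infested with 6 to 10 L2 larvae per well. Mortality and growth inhibition were scored against untreated samples 4 days after infestation.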

[2] = tested on: Euschistus heros (Neotropical Brown Stink Bug); assay: Example B2: Euschistus heros, spray on soybean leaves; conditions: 120 h, application rate of 200 ppm, N2 nymphs, 5 days after infestation, read-out: control in at least one of the two categories (mortality or growth inhibition)
Experimental: Soybean leaves on agar in 24-well microtiter plates were sprayed with aqueous test solutions prepared from 10′000 ppm DMSO stock solutions. After drying the leaves were infested with N2 nymphs. The samples were assessed for mortality and growth inhibition in comparison to untreated samples 5 days after infestation.

[3] = tested on: Chilo suppressalis (Striped Rice Stemborer); assay: Example B4: Chilo suppressalis, artificial diet; conditions: 144 h, application rate of 200 ppm, L2 larvae, 6 days after infestation, read-out: control in at least one of the three categories (mortality, anti-feedant effect, or growth inhibition)
Procedure, shortened: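 Artificial diet in wells was treated with aqueous test solutions diluted from 10'000 ppm DMSO stocks, dried, then infested with 6-8 L2 larvae per well. Mortality, anti-feeding effect and growth inhibition were scored against untreated samples 6 days after infestation; control means any category exceeds the untreated sample.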

[4] = tested on: Plutella xylostella (Diamond Back Moth); assay: Example B5: Plutella xylostella, artificial diet, 24-well; conditions: 192 h, application rate of 200 ppm, eggs, 8 days after infestation, read-out: control in at least one of the two categories (mortality or growth inhibition)
Experimental: 24-well microtiter plates with artificial diet were treated with aqueous test solutions prepared from 10′000 ppm DMSO stock solutions by pipetting. After drying, Plutella eggs were pipetted through a plastic stencil onto a gel blotting paper and the plate was closed with it. The samples were assessed for mortality and growth inhibition in comparison to untreated samples 8 days after infestation.

[5] = tested on: Spodoptera littoralis (Egyptian Cotton Leaf Worm); assay: Example B9: Spodoptera littoralis, spray on cotton leaf discs; conditions: foliar, 72 h, application rate of 200 ppm, L1 larvae, 3 days after infestation, read-out: control in at least one of the three categories (mortality, anti-feedant effect, or growth inhibition)
Procedure, shortened: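 Five L1 larvae per sprayed, dried cotton leaf disc on agar. Activity is counted when mortality, anti-feedant effect or growth inhibition exceeds the untreated sample at day 3.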

[6] = tested on: Spodoptera littoralis (Egyptian Cotton Leaf Worm); assay: Example B10: Spodoptera littoralis, uptake by lettuce roots from agar; conditions: 144 h, test rate of 12.5 ppm, eggs, 6 days after infestation, read-out: control in at least one of the three categories (mortality, anti-feedant, or growth inhibition)
Source text: Test compounds were applied by pipette from 10′000 ppm DMSO stock solutions into 24-well plates and mixed with agar. Lettuce seeds were placed onto the agar and the multi well plate was closed by another plate which contained also agar. After 7 days the compound was absorbed by the roots and the lettuce grew into the lid plate. The lettuce leaves were then cut off into the lid plate. Spodoptera eggs were pipetted through a plastic stencil onto a humid gel blotting paper and the lid plate was closed with it. The samples were assessed for mortality, anti-feedant effect and growth inhibition in comparison to untreated samples 6 days after infestation.

[7] = tested on: Plutella xylostella (Diamondback Moth); assay: Example B13: Plutella xylostella, artificial diet, 96-well; conditions: 216 h, application rate of 500 ppm, eggs/L1 larvae, 9 days after infestation
Experimental: 96-well microtiter plates containing artificial diet were treated with aqueous test solutions, prepared from 10′000 ppm DMSO stock solutions, by a liquid handling robot. After drying, eggs (˜30 per well) were infested onto a netted lid which was suspended above the diet. The eggs hatch and L1 larvae move down to the diet. The samples were assessed for mortality 9 days after infestation.

[8] = tested on: Tetranychus urticae (Two-Spotted Spider Mite); assay: Example B14: Tetranychus urticae, feeding/contact activity; conditions: 192 h
Experimental: Bean leaf discs on agar in 24-well microtiter plates were sprayed with aqueous test solutions prepared from 10′000 ppm DMSO stock solutions. After drying the leaf discs were infested with a mite population of mixed ages. The samples were assessed for mortality on mixed population (mobile stages) 8 days after infestation.

[9] = tested on: Myzus persicae (Green Peach Aphid); assay: Example B12: Myzus persicae, sucrose solution, 96-well; conditions: 120 h, application rate of 50 ppm, 5 days after infestation
Experimental: Test compounds prepared from 10′000 ppm DMSO stock solutions were applied by a liquid handling robot into 96-well microtiter plates and mixed with a sucrose solution. Parafilm was stretched over the 96-well microtiter plate and a plastic stencil with 96 holes was placed onto the plate. Aphids were sieved into the wells directly onto the Parafilm. The infested plates were closed with a gel blotting card and a second plastic stencil and then turned upside down. The samples were assessed for mortality 5 days after infestation.

[10] = tested on: Myzus persicae (Green Peach Aphid); assay: Example B6: Myzus persicae, feeding/contact activity; conditions: 144 h, application rate of 200 ppm, mixed ages, 6 days after infestation
Experimental: Sunflower leaf discs were placed onto agar in a 24-well microtiter plate and sprayed with aqueous test solutions prepared from 10′000 ppm DMSO stock solutions. After drying, the leaf discs were infested with an aphid population of mixed ages. The samples were assessed for mortality 6 days after infestation.

CC(c1nc(Br)nn1-c1ccc(C#N)cn1)N(C)C(=O)c1cc(C(F)(F)F)cc(C(F)(F)F)c1 (centres unmarked) [Compound P12, N-[1-[5-bromo-2-(5-cyano-2-pyridyl)-1,2,4-triazol-3-yl]ethyl]-N-methyl-3,5-bis(trifluoromethyl) benzamide]
≥ 80%: percent control (mortality or growth inhibition) at 200 ppm [1] | percent control (mortality or growth inhibition) at 200 ppm [2] | percent control (mortality, anti-feedant effect or growth inhibition) at 200 ppm [3] | percent control (mortality or growth inhibition) at 200 ppm [4] | percent control (mortality, anti-feedant effect or growth inhibition) at 200 ppm [5] | percent control (mortality, anti-feedant effect or growth inhibition) at 12.5 ppm [6] | mortality at 500 ppm [7]

CC(NC(=O)c1cc(OC(F)F)cc(C(F)(F)F)c1)c1nc(Br)nn1-c1ccc(OCC(F)F)cn1 (centres unmarked) [Compound P16, N-[1-[5-bromo-2-[5-(2,2-difluoroethoxy)-2-pyridyl]-1,2,4-triazol-3-yl]ethyl]-3-(difluoromethoxy)-5-(trifluoromethyl) benzamide]
≥ 80%: percent control (mortality or growth inhibition) at 200 ppm [1] | percent control (mortality, anti-feedant effect or growth inhibition) at 200 ppm [3] | percent control (mortality or growth inhibition) at 200 ppm [4] | percent control (mortality, anti-feedant effect or growth inhibition) at 200 ppm [5] | mortality at 500 ppm [7] | mortality at 200 ppm [8]

CC(NC(=O)c1cc(OC(F)F)cc(C(F)(F)F)c1)c1nc(Br)nn1-c1ncc(OCC(F)F)cn1 (centres unmarked) [Compound P23, N-[1-[5-bromo-2-[5-(2,2-difluoroethoxy)pyrimidin-2-yl]-1,2,4-triazol-3-yl]ethyl]-3-(difluoromethoxy)-5-(trifluoromethyl)be nzamide]
≥ 80%: percent control (mortality or growth inhibition) at 200 ppm [1] | percent control (mortality, anti-feedant effect or growth inhibition) at 200 ppm [3] | percent control (mortality or growth inhibition) at 200 ppm [4] | percent control (mortality, anti-feedant effect or growth inhibition) at 200 ppm [5] | mortality at 50 ppm [9] | mortality at 500 ppm [7]

CC(NC(=O)c1cc(Br)cc(C(F)(F)F)c1)c1nc(Br)nn1-c1ccc(OCC(F)F)cn1 (centres unmarked) [Compound P35, 3-bromo-N-[1-[5-bromo-2-[5-(2,2-difluoroethoxy)-2-pyridyl]-1,2,4-triazol-3-yl]ethyl]-5-(trifluoromethyl) benzamide]
≥ 80%: percent control (mortality or growth inhibition) at 200 ppm [1] | percent control (mortality, anti-feedant effect or growth inhibition) at 200 ppm [3] | percent control (mortality or growth inhibition) at 200 ppm [4] | mortality at 200 ppm [10] | percent control (mortality, anti-feedant effect or growth inhibition) at 200 ppm [5] | mortality at 500 ppm [7]

CC(NC(=O)c1cc(Cl)cc(C(F)(F)F)c1)c1nc(Br)nn1-c1ncc(OCC(F)(F)F)cn1 (centres unmarked) [Compound P43, N-[1-[5-bromo-2-[5-(2,2,2-trifluoroethoxy)pyrimidin-2-yl]-1,2,4-triazol-3-yl]ethyl]-3-chloro-5-(trifluoromethyl) benzamide]
≥ 80%: percent control (mortality or growth inhibition) at 200 ppm [1] | percent control (mortality, anti-feedant effect or growth inhibition) at 200 ppm [3] | percent control (mortality or growth inhibition) at 200 ppm [4] | percent control (mortality, anti-feedant effect or growth inhibition) at 200 ppm [5] | mortality at 50 ppm [9] | mortality at 500 ppm [7]

CC(NC(=O)c1cc(OCC(F)F)cc(C(F)(F)F)c1)c1nc(Br)nn1-c1ncc(OCC(F)F)cn1 (centres unmarked) [Compound P47, N-[1-[5-bromo-2-[5-(2,2-difluoroethoxy)pyrimidin-2-yl]-1,2,4-triazol-3-yl]ethyl]-3-(2,2-difluoroethoxy)-5-(trifluoromethyl) benzamide]
≥ 80%: percent control (mortality, anti-feedant effect or growth inhibition) at 200 ppm [3] | percent control (mortality or growth inhibition) at 200 ppm [4] | percent control (mortality, anti-feedant effect or growth inhibition) at 200 ppm [5] | mortality at 50 ppm [9] | mortality at 500 ppm [7]

CC(NC(=O)c1cc(OCC(F)F)cc(C(F)(F)F)c1)c1nc(Br)nn1-c1ccc(OCC(F)(F)F)cn1 (centres unmarked) [Compound P55, N-[1-[5-bromo-2-[5-(2,2,2-trifluoroethoxy)-2-pyridyl]-1,2,4-triazol-3-yl]ethyl]-3-(2,2-difluoroethoxy)-5-(trifluoromethyl) benzamide]
≥ 80%: percent control (mortality or growth inhibition) at 200 ppm [4] | mortality at 200 ppm [10]
